Measured values: US20080057529A1, “Method for Identifying Histone Deacetylase Inhibitors” (priority 2003, published 2008)

Tests used:
Format in all cases: cell-based, human
p21 minimal promoter [1] = assay: Transient transfection of HeLa cells with p21m-SEAP reporter plasmid, SEAP activity; settings: Apicidin 1 μM; for Fold Induct. (SEAP norm) / Fold induct. (SEAP) / SEAP (fold ind) / SEAP norm.-bckg/RLU norm (fold ind): vs DMSO
Procedure: To determine whether the p21 minimal promoter was responsive to HDAC inhibitors, a reporter plasmid containing the secreted alkaline phosphatase gene (SEAP) operably linked to the p21 minimal promoter (−182 through +25), pcDNA3-21m-SEAP, was tested in transient transfection experiments of HeLa cells. […] All data summarized in Tables 4 through 7 were obtained by normalizing the total amount of transfected DNA to 2.1 μg using a promoterless plasmid.

p21 minimal promoter [2] = assay: Transient transfection of HeLa cells with p21m-BLA reporter plasmid, Bla staining (blue cells); settings: Apicidin 1 μM; for % Blue cells: Table 3, 2 μg p21m-BLA + 0.1 μg pCMV-Luc, TSA 300 nM; for Bla staining at 60 min. / fold-ind. at 60 min. (Bla): Table 6; for fold-ind. at 60 min. (Bla) / fold-ind. at 15 min. (Bla): vs DMSO; for Bla staining at 15 min / fold-ind. at 15 min. (Bla): Table 7 (repeat)
Procedure: The p21m-BLA reporter plasmid was tested in transient transfection experiments of HeLa cells to evaluate the responsiveness of the minimal p21 promoter and the Bla reporter system to known HDAC inhibitors. In the first two transfection experiments, HeLa cells were transfected with 1 or 2 μg of Bla reporter plasmid containing either p21 minimal promoter (p21m-BLA) or CMV promoter (CMV-BLA) and 0.1 μg of pCMV-Luc or pRSV-Luc control plasmids. Different DNA-FUGENE transfection reagent ratios were tested (FUGENE is available from Roche Applied Science, Indianapolis, Ind.). […] Data are summarized below in Tables 1 and 2.
The percentage of β-lactamase-positive cells increased with time independent of the presence of HDAC inhibitors and was constantly higher with p21m-BLA than with pCMV-BLA.
In light of the above, the lack of apparent Bla activation in the above transfection experiments might have been due to the high sensitivity of the method. Therefore, transient transfections in which an accurate titration of the reporter plasmid DNA were performed. The titration of the reporter plasmid included using amounts lower than was used above. […] The transient transfections were repeated and the result confirmed (Table 7).

[3] = tested on: HDAC activity (acetylated histone H3); assay: Acetylation of core histones (inhibition of HDAC activity) in HeLa cells, acetylated histone H3 immunoblot; settings: Homo sapiens, HeLa, 13 h, read-out: AcH3 EC50
Procedure: Induction of endogenous p21 and acetylation of core histones (inhibition of HDAC activity) was as follows. Dose-response experiments were performed in HeLa cells with different classes of known HDAC inhibitors. […] An α-tubulin-specific antibody (Sigma, St. Louis, Mo.; catalog number: T9026) was used as an internal standard. Quantitative data were obtained by densitometric analysis of X-ray films and were normalized for the internal standard values.

[4] = Table 5, TSA 300 nM, P21m-SEAP 0.1 μg DNA
[5] = Table 5, TSA 300 nM, P21m-SEAP 0.2 μg DNA
[6] = Table 5, TSA 300 nM, P21m-SEAP 0.5 μg DNA
[7] = Table 5, TSA 300 nM, P21m-SEAP 1 μg DNA
[8] = Table 5, TSA 300 nM, P21m-SEAP 2 μg DNA

CCC(=O)CCCCC[C@@H]1NC(=O)[C@H]2CCCCN2C(=O)[C@H]([C@@H](C)CC)NC(=O)[C@H](Cc2cn(OC)c3ccccc23)NC1=O [Apicidin]
SEAP (10 min) (p21 minimal promoter [1]; Table 4, P21m-SEAP 1 μg DNA (total DNA 2.1 μg)): 85405
SEAP activity normalised to total protein (p21 minimal promoter [1]; Table 4, P21m-SEAP 1 μg DNA): 61003.57
Fold Induct. (SEAP norm) (p21 minimal promoter [1]; Table 4, P21m-SEAP 1 μg DNA): 17.5478 fold
Fold induct. (SEAP) (p21 minimal promoter [1]; Table 4, P21m-SEAP 1 μg DNA): 8.8 fold
SEAP (10 min) (p21 minimal promoter [1]; Table 4, P21m-SEAP 2 μg DNA (total DNA 2.1 μg)): 795345
SEAP activity normalised to total protein (p21 minimal promoter [1]; Table 4, P21m-SEAP 2 μg DNA): 441858.3
Fold Induct. (SEAP norm) (p21 minimal promoter [1]; Table 4, P21m-SEAP 2 μg DNA): 15.3076 fold
Fold induct. (SEAP) (p21 minimal promoter [1]; Table 4, P21m-SEAP 2 μg DNA): 9.8 fold
SEAP (10 min) (p21 minimal promoter [1]; Table 5, TSA 300 nM, P21m-SEAP 0 μg DNA (total DNA 2.1 μg)): 2133
SEAP (fold ind) (p21 minimal promoter [1]; Table 5, TSA 300 nM, P21m-SEAP 0 μg DNA): 1.8 fold
SEAP norm-bckg/RLU norm (p21 minimal promoter [1]; [4]): 4,740.65
SEAP (10 min) (p21 minimal promoter [1]; Table 5, TSA 300 nM, P21m-SEAP 0.1 μg DNA (total DNA 2.1 μg)): 5661
SEAP (fold ind) (p21 minimal promoter [1]; [4]): 3.3 fold
SEAP norm.-bckg/RLU norm (fold ind) (p21 minimal promoter [1]; [4]): 10.7 fold
SEAP norm-bckg/RLU norm (p21 minimal promoter [1]; [5]): 10,064.04
SEAP (10 min) (p21 minimal promoter [1]; Table 5, TSA 300 nM, P21m-SEAP 0.2 μg DNA (total DNA 2.1 μg)): 10279
SEAP (fold ind) (p21 minimal promoter [1]; [5]): 3.75 fold
SEAP norm.-bckg/RLU norm (fold ind) (p21 minimal promoter [1]; [5]): 16.4 fold
SEAP norm-bckg/RLU norm (p21 minimal promoter [1]; [6]): 24,280.99
SEAP (10 min) (p21 minimal promoter [1]; Table 5, TSA 300 nM, P21m-SEAP 0.5 μg DNA (total DNA 2.1 μg)): 16014
SEAP (fold ind) (p21 minimal promoter [1]; [6]): 6.25 fold
SEAP norm.-bckg/RLU norm (fold ind) (p21 minimal promoter [1]; [6]): 17.9 fold
SEAP norm-bckg/RLU norm (p21 minimal promoter [1]; [7]): 68,122.56
SEAP (10 min) (p21 minimal promoter [1]; Table 5, TSA 300 nM, P21m-SEAP 1 μg DNA (total DNA 2.1 μg)): 48928
SEAP (fold ind) (p21 minimal promoter [1]; [7]): 6.8 fold
SEAP norm.-bckg/RLU norm (fold ind) (p21 minimal promoter [1]; [7]): 16.9 fold
SEAP norm-bckg/RLU norm (p21 minimal promoter [1]; [8]): 219,589.86
SEAP (10 min) (p21 minimal promoter [1]; Table 5, TSA 300 nM, P21m-SEAP 2 μg DNA (total DNA 2.1 μg)): 108562
SEAP (fold ind) (p21 minimal promoter [1]; [8]): 4.5 fold
SEAP norm.-bckg/RLU norm (fold ind) (p21 minimal promoter [1]; [8]): 17.3 fold
induction of β-lactamase activity (p21 minimal promoter [2]; only with the lowest DNA amounts): 3- to 5 fold
% Blue cells (p21 minimal promoter [2]; 6 hr treatment): 6%
% Blue cells (p21 minimal promoter [2]; 12 hr treatment): 10%
% Blue cells (p21 minimal promoter [2]; 24 hr treatment): 25%
Bla staining at 60 min. (p21 minimal promoter [2]; p21m-BLA 0 μg DNA): 0%
Bla staining at 60 min. (p21 minimal promoter [2]; p21m-BLA 0.02 μg DNA): 2-3%
fold-ind. at 60 min. (Bla) (p21 minimal promoter [2]; p21m-BLA 0.02 μg DNA): 3-4 fold
Bla staining at 60 min. (p21 minimal promoter [2]; p21m-BLA 0.05 μg DNA): 10-15%
fold-ind. at 60 min. (Bla) (p21 minimal promoter [2]; p21m-BLA 0.05 μg DNA): 5 fold
Bla staining at 60 min. (p21 minimal promoter [2]; p21m-BLA 0.1 μg DNA): 25-30%
fold-ind. at 60 min. (Bla) (p21 minimal promoter [2]; p21m-BLA 0.1 μg DNA): 2 fold
Bla staining at 60 min. (p21 minimal promoter [2]; p21m-BLA 0.2 μg DNA): 35-40%
fold-ind. at 60 min. (Bla) (p21 minimal promoter [2]; p21m-BLA 0.2 μg DNA): 2 fold
Bla staining at 60 min. (p21 minimal promoter [2]; p21m-BLA 0.5 μg DNA): 50%
fold-ind. at 60 min. (Bla) (p21 minimal promoter [2]; p21m-BLA 0.5 μg DNA): 1.25 fold
Bla staining at 15 min (p21 minimal promoter [2]; p21m-BLA 0 μg DNA): 0%
Bla staining at 15 min (p21 minimal promoter [2]; p21m-BLA 0.02 μg DNA): 6-10%
fold-ind. at 15 min. (Bla) (p21 minimal promoter [2]; p21m-BLA 0.02 μg DNA): 2-3 fold
Bla staining at 15 min (p21 minimal promoter [2]; p21m-BLA 0.05 μg DNA): 20-25%
fold-ind. at 15 min. (Bla) (p21 minimal promoter [2]; p21m-BLA 0.05 μg DNA): 4-5 fold
Bla staining at 15 min (p21 minimal promoter [2]; p21m-BLA 0.1 μg DNA): 25-30%
fold-ind. at 15 min. (Bla) (p21 minimal promoter [2]; p21m-BLA 0.1 μg DNA): 2 fold
Bla staining at 15 min (p21 minimal promoter [2]; p21m-BLA 0.2 μg DNA): 40%
fold-ind. at 15 min. (Bla) (p21 minimal promoter [2]; p21m-BLA 0.2 μg DNA): 1.3 fold
Bla staining at 15 min (p21 minimal promoter [2]; p21m-BLA 0.5 μg DNA): 40%
fold-ind. at 15 min. (Bla) (p21 minimal promoter [2]; p21m-BLA 0.5 μg DNA): 1 fold
EC50 [3]: 0.11 µM
